# pIC50: −log10 of the molar value. Structures can show the parent of a compound that is named as a salt. Where two headings read alike, the source gives them in different places.
# Tests used:
# [1] = tested on: fibrin- and LPS-induced microglia activation; assay: cells; format: cell-based, rat
# [2] = tested on: fibrin-induced microglia activation; assay: Image-based assay of fibrin-induced microglia activation (HTS and dose response); format: cell-based, rat; settings: for inhibition at 10 µM: Rattus norvegicus, Microglia, read-out: Fibrin % inhibition; for pIC50: read-out: Fibrin IC50; for IC50: read-out: Fibrin IC50 (uM) (Suppl. Table 7)
# [3] = tested on: primary rat microglia;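 for Fibrin % cell toxicity: share of dead cells sized under 150 µm2 at 10 µM in fibrin-stimulated microglia HTS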
# [4] = tested on: primary rat microglia; remark: listed apart in the source;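 for Fibrin % cell toxicity: share of dead cells sized under 150 µm2 at 10 µM in fibrin-stimulated microglia HTS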
# [5] = tested on: LPS-induced microglia activation; assay: Image-based assay of LPS-induced microglia activation (HTS and dose response); format: cell-based, rat
# [6] = quadrant by fibrin and LPS inhibition in HTS of 1907 compounds
# [7] = primary microglia HTS, fibrin stimulation, increased cell size (>800 μm^2) as marker of activation
# [8] = Rattus norvegicus, Microglia, 48 h, primary microglia HTS, LPS stimulation; increased cell size (>800 μm^2) as marker of activation; read-out: LPS % inhibition
# [9] = primary HTS, 10 μM, fibrin-stimulated primary microglia
# [10] = Rattus norvegicus, Microglia, primary HTS, 10 μM, LPS-stimulated primary microglia; read-out: LPS % inhibition
# [11] = Rattus norvegicus, Microglia, read-out: LPS % inhibition
# [12] = HTS of 1907 compounds, quadrant by fibrin and LPS inhibition
# [13] = primary microglia HTS, 10 μM, fibrin-stimulated, cell size >800 μm^2 as marker of activation
# [14] = Rattus norvegicus, Microglia, primary microglia HTS, 10 μM, LPS-stimulated, cell size >800 μm^2 as marker of activation; read-out: LPS % inhibition
# [15] = read-out: LPS IC50 (uM) (Suppl. Table 7)
# [16] = classification by fibrin and LPS inhibition in HTS
# [17] = primary microglia HTS, fibrin stimulation, cell size >800 μm2 as marker of activation
# [18] = Rattus norvegicus, Microglia, 48 h; read-out: LPS % inhibition
compound,measurement,setting,value
O=C(O)/C=C/C(=O)O [Fumaric Acid],Quadrant (FIG. 5b),[1],Q4
same,inhibition at 10 µM,[2],19%
same,Fibrin % cell toxicity,[3]; rat,1%
same,LPS % cell toxicity,[4]; rat,0%
same,inhibition at 10 µM,"[5]; Rattus norvegicus, Microglia, 48 h, read-out: LPS % inhibition",17%
"NC(=O)CC[C@H](N)C(=O)O [L-glutamine, Glutamine (I)]",Quadrant (FIG. 5b),[1]; [6],Q4
same,Fibrin % inhibition,"[2]; primary microglia HTS, fibrin stimulation, activation = cell size >800 μm2",4%
same,Fibrin % cell toxicity,[3],0%
same,LPS % cell toxicity,[4],0%
same,LPS % inhibition,"[5]; primary microglia HTS, LPS stimulation, activation = cell size >800 μm2",14%
CC[C@@H](CO)NC(=O)[C@@H]1C=C2c3cccc4[nH]cc(c34)C[C@H]2N(C)C1 [Methylergometrine],Quadrant (FIG. 5b),[1]; [6],Q4
same,inhibition at 10 µM,[2]; [7],-43%
same,Fibrin % cell toxicity,[3]; rat,0%
same,LPS % cell toxicity,[4]; rat,0%
same,inhibition at 10 µM,[5]; [8],7%
CC[C@H]1OC(=O)[C@H](C)[C@@H](O[C@H]2C[C@@](C)(OC)[C@@H](O)[C@H](C)O2)[C@H](C)[C@@H](O[C@@H]2O[C@H](C)C[C@H](N(C)C)[C@H]2O)[C@](C)(OC)C[C@@H](C)C(=O)[C@H](C)[C@@H](O)[C@]1(C)O [Clarithromycin],Quadrant (FIG. 5b),"[1]; primary HTS, 10 μM",Q4
same,inhibition at 10 µM,[2]; [9],-7%
same,Fibrin % cell toxicity,[3]; rat,1%
same,LPS % cell toxicity,[4]; rat,0%
same,inhibition at 10 µM,[5]; [10],18%
O=c1[nH]c(=O)n(Cl)c(=O)n1Cl [Troclosene Potassium],Quadrant (FIG. 5b),[1],Q4
same,inhibition at 10 µM,[2],-8%
same,Fibrin % cell toxicity,[3]; rat,1%
same,LPS % cell toxicity,[4]; rat,0%
same,inhibition at 10 µM,[5]; [11],1%
COc1cc(C(=O)NS(=O)(=O)c2ccccc2C)ccc1Cc1cn(C)c2ccc(NC(=O)OC3CCCC3)cc12 [Zafirlukast],Quadrant (FIG. 5b),[1]; [12],Q4
same,inhibition at 10 µM,[2]; [13],-21%
same,Fibrin % cell toxicity,[3]; rat,0%
same,LPS % cell toxicity,[4]; rat,1%
same,inhibition at 10 µM,[5]; [14],3%
CC=CC1=C(C(=O)O)N2C(=O)[C@@H](NC(=O)[C@H](N)c3ccc(O)cc3)[C@H]2SC1 [Cefprozil],Quadrant (FIG. 5b),"[1]; primary HTS, 10 μM",Q4
same,Fibrin % inhibition,[2]; [9],3%
same,Fibrin % cell toxicity,[3],0%
same,LPS % cell toxicity,[4],0%
same,LPS % inhibition,"[5]; primary HTS, 10 μM, LPS-stimulated primary microglia",14%
CCn1cc(C(=O)O)c(=O)c2cc(F)c(N3CCNCC3)cc21 [Norfloxacin],Quadrant (FIG. 5b),[1]; [6],Q4
same,inhibition at 10 µM,[2]; [7],0%
same,Fibrin % cell toxicity,[3]; rat,1%
same,LPS % cell toxicity,[4]; rat,0%
same,inhibition at 10 µM,[5]; [8],9%
Prednisolone sodium phosphate [reference compound],Cherry-picked Hit (Suppl. Table 7),[1],HIT (key: HIT: Hits were defined as molecules that exhibited greater than 50% inhibition of either fibrin or LPS activation)
same,Hit,[1],HIT (key: HIT: Hits were defined as molecules that exhibited greater than 50% inhibition of either fibrin or LPS activation)
same,Quadrant (FIG. 5b),[1],Q2
same,Fibrin % inhibition,[2],108%
same,pIC50,[2],7.00
same,IC50,[2],0.1 µM
same,Fibrin % cell toxicity,[3],3%
same,pIC50,[3],< 4.70
same,pIC50,[4],< 4.70
same,LPS % cell toxicity,[4],3%
same,LPS % inhibition,[5],96%
same,pIC50,[5]; read-out: LPS IC50,5.40
same,IC50,[5]; [15],4 µM
"CN(CCOc1ccc(CC2SC(=O)NC2=O)cc1)c1ccccn1 (centres unmarked) [Rosiglitazone, Rosiglitazone Maleate]",Quadrant (FIG. 5b),[1],Q4
same,Fibrin % inhibition,[2],5%
same,Fibrin % cell toxicity,[3],1%
same,LPS % cell toxicity,[4],1%
same,LPS % inhibition,[5],20%
CCn1cc(C(=O)O)c(=O)c2cnc(N3CCNCC3)nc21 [Pipemidic Acid],Quadrant (FIG. 5b),[1]; [16],Q4
same,inhibition at 10 µM,[2]; [17],-27%
same,Fibrin % cell toxicity,[3]; rat,1%
same,LPS % cell toxicity,[4]; rat,0%
same,inhibition at 10 µM,[5]; [18],12%
c1ccc(-c2ccc(C(c3ccccc3)n3ccnc3)cc2)cc1 (centres unmarked) [Bifonazole],Quadrant (FIG. 5b),[1],Q4
same,inhibition at 10 µM,[2],-3%
same,Fibrin % cell toxicity,[3]; rat,1%
same,LPS % cell toxicity,[4]; rat,0%
same,inhibition at 10 µM,[5]; [11],14%
CC(C)NCC(O)c1ccc(NS(C)(=O)=O)cc1 (centres unmarked) [Sotalol],Quadrant (FIG. 5b),[1]; [16],Q4
same,inhibition at 10 µM,[2]; [17],6%
same,Fibrin % cell toxicity,[3]; rat,1%
same,LPS % cell toxicity,[4]; rat,0%
same,inhibition at 10 µM,[5]; [18],6%
CCCN(CCC)S(=O)(=O)c1ccc(C(=O)O)cc1 [Probenecid],Quadrant (FIG. 5b),[1]; [16],Q4
same,inhibition at 10 µM,[2]; [17],14%
same,Fibrin % cell toxicity,[3]; rat,1%
same,LPS % cell toxicity,[4]; rat,0%
same,inhibition at 10 µM,[5]; [18],13%
COc1cc(NS(C)(=O)=O)ccc1Nc1c2ccccc2nc2ccccc12 [Amsacrine],Quadrant (FIG. 5b),[1]; [6],Q2
same,inhibition at 10 µM,[2]; [7],70%
same,Fibrin % cell toxicity,[3]; rat,3%
same,LPS % cell toxicity,[4]; rat,54%
same,inhibition at 10 µM,[5]; [8],120%
C[N+](C)(C)CCOP(=O)(O)OP(=O)([O-])OC[C@H]1O[C@@H](n2ccc(N)nc2=O)[C@H](O)[C@@H]1O [Citicoline],Quadrant (FIG. 5b),"[1]; primary HTS, 10 μM",Q4
same,inhibition at 10 µM,[2]; [9],5%
same,Fibrin % cell toxicity,[3]; rat,1%
same,LPS % cell toxicity,[4]; rat,0%
same,inhibition at 10 µM,[5]; [10],16%
Oc1c(Cl)cc(Cl)cc1Sc1cc(Cl)cc(Cl)c1O [Bithionol],Quadrant (FIG. 5b),"[1]; primary HTS, 10 μM",Q4
same,inhibition at 10 µM,[2]; [9],11%
same,Fibrin % cell toxicity,[3]; rat,1%
same,LPS % cell toxicity,[4]; rat,0%
same,inhibition at 10 µM,[5]; [10],14%
Cc1c(Cl)cccc1Nc1ccccc1C(=O)O [Tolfenamic Acid],Quadrant (FIG. 5b),[1]; [12],Q4
same,inhibition at 10 µM,[2]; [13],3%
same,Fibrin % cell toxicity,[3]; rat,1%
same,LPS % cell toxicity,[4]; rat,1%
same,inhibition at 10 µM,[5]; [14],36%
CCc1cccc2c3c([nH]c12)C(CC)(CC(=O)O)OCC3 (centres unmarked) [Etodolac],Quadrant (FIG. 5b),"[1]; classification by fibrin and LPS inhibition, HTS at 10 μM",Q4
same,inhibition at 10 µM,"[2]; primary microglia HTS, fibrin stimulation, compounds at 10 μM",-87%
same,Fibrin % cell toxicity,[3]; rat,0%
same,LPS % cell toxicity,[4]; rat,1%
same,inhibition at 10 µM,"[5]; Rattus norvegicus, Microglia, primary microglia HTS, LPS stimulation, compounds at 10 μM; read-out: LPS % inhibition",14%
CC(C(=O)O)c1ccc2c(c1)[nH]c1ccc(Cl)cc12 (centres unmarked) [Carprofen],Quadrant (FIG. 5b),"[1]; primary HTS, 10 μM",Q4
same,inhibition at 10 µM,[2]; [9],-2%
same,Fibrin % cell toxicity,[3]; rat,0%
same,LPS % cell toxicity,[4]; rat,0%
same,inhibition at 10 µM,[5]; [10],15%
"O=C([O-])C[C@H](O)C[C@H](O)/C=C/c1c(C2CC2)nc2ccccc2c1-c1ccc(F)cc1.O=C([O-])C[C@H](O)C[C@H](O)/C=C/c1c(C2CC2)nc2ccccc2c1-c1ccc(F)cc1.[Ca+2] [Pitavastatin calcium, reference compound]",Cherry-picked Hit (Suppl. Table 7),[1],HIT (key: HIT: Hits were defined as molecules that exhibited greater than 50% inhibition of either fibrin or LPS activation)
same,Hit,[1],HIT (key: HIT: Hits were defined as molecules that exhibited greater than 50% inhibition of either fibrin or LPS activation)
same,Quadrant (FIG. 5b),[1],Q2
same,Fibrin % inhibition,[2],100%
same,Fibrin Selectivity,[2],4
same,Fibrin Selectivity (LOG10),[2],0.61
same,pIC50,[2],6.00
same,IC50,[2],1 µM
same,Fibrin % cell toxicity,[3],1%
same,pIC50,[3],< 4.70
same,pIC50,[4],< 4.70
same,LPS % cell toxicity,[4],1%
same,LPS % inhibition,[5],66%
same,pIC50,[5]; read-out: LPS IC50,5.30
same,IC50,[5]; [15],5 µM
Sc1ncnc2nc[nH]c12 [Mercaptopurine],Quadrant (FIG. 5b),[1]; [6],Q4
same,inhibition at 10 µM,[2]; [7],2%
same,Fibrin % cell toxicity,[3]; rat,0%
same,LPS % cell toxicity,[4]; rat,0%
same,inhibition at 10 µM,[5]; [8],9%

# Source: patent US20210330611A1, “THERAPY FOR NEUROLOGICAL DISEASES/DISORDERS” (priority 2020, published 2021)
